Where a name gives a salt, the structure may show the parent alone. Read-outs that look alike come from different tables or passages of the source. Values belong to the compound of their own block, whether it stands above or below them.
Assay: Equilibrium solubility in aqueous solutions containing different concentrations of Captisol
Type: physicochemical
Conditions: aqueous solution containing Captisol, 20 °C, thermodynamic from solid, free form equivalent
Procedure: Captisol® improves the solubility of the compound of Formula I in free base form, HCl salt and tosylate salt. Solubility of the above compounds was determined by equilibrating the powder with aqueous solutions containing different concentration of Captisol® at ambient temperature (20° C.).
The solutions were prepared in accordance with methods known to one of skill in the art.

solubility (pH 5, aqueous buffer, Captisol 0 % w/v, pH 5 (NaOH adjusted), ambient temperature (20° C.), read-out: Solubility of Compound I HCl salt at pH 5 (pH adjusted by NaOH)): 50 µg/mL | solubility (pH 5, aqueous with cosolvent or surfactant or cyclodextrin, Captisol 2 % w/v, pH 5 (NaOH adjusted), ambient temperature (20° C.), read-out: Solubility of Compound I HCl salt at pH 5 (pH adjusted by NaOH)): 3500 µg/mL | solubility (pH 5, aqueous with cosolvent or surfactant or cyclodextrin, Captisol 5 % w/v, pH 5 (NaOH adjusted), ambient temperature (20° C.), read-out: Solubility of Compound I HCl salt at pH 5 (pH adjusted by NaOH)): 4700 µg/mL | solubility (pH 5, aqueous with cosolvent or surfactant or cyclodextrin, Captisol 10 % w/v, pH 5 (NaOH adjusted), ambient temperature (20° C.), read-out: Solubility of Compound I HCl salt at pH 5 (pH adjusted by NaOH)): 10000 µg/mL
Structure (SMILES): C[C@@H](OC[C@@]1(c2ccccc2)CC[C@]2(CCC(=O)N2)CN1)c1cc(C(F)(F)F)cc(C(F)(F)F)c1 [Compound I HCl salt]

solubility (pH 5, aqueous buffer, Captisol 0 % w/v, pH 5 (NaOH adjusted), 20° C., read-out: Solubility of Compound I Tosylate salt at pH 5 (pH adjusted by NaOH)): 150 µg/mL | solubility (pH 5, aqueous with cosolvent or surfactant or cyclodextrin, Captisol 10 % w/v, pH 5 (NaOH adjusted), 20° C., read-out: Solubility of Compound I Tosylate salt at pH 5 (pH adjusted by NaOH)): 940 µg/mL | solubility (pH 5, aqueous with cosolvent or surfactant or cyclodextrin, Captisol 20 % w/v, pH 5 (NaOH adjusted), 20° C., read-out: Solubility of Compound I Tosylate salt at pH 5 (pH adjusted by NaOH)): 1800 µg/mL | solubility (pH 5, aqueous with cosolvent or surfactant or cyclodextrin, Captisol 40 % w/v, pH 5 (NaOH adjusted), 20° C., read-out: Solubility of Compound I Tosylate salt at pH 5 (pH adjusted by NaOH)): 4100 µg/mL
Structure (SMILES): C[C@@H](OC[C@@]1(c2ccccc2)CC[C@]2(CCC(=O)N2)CN1)c1cc(C(F)(F)F)cc(C(F)(F)F)c1 [Compound I Tosylate salt]

solubility (pH 5.2, aqueous buffer, Captisol 0 % w/v, pH 5.2 citric acid buffered, 20° C., read-out: Solubility of Compound I free base at pH 5.2 (citric acid buffered)): 170 µg/mL | solubility (pH 5.2, aqueous with cosolvent or surfactant or cyclodextrin, Captisol 2 % w/v, pH 5.2 citric acid buffered, 20° C., read-out: Solubility of Compound I free base at pH 5.2 (citric acid buffered)): 2200 µg/mL | solubility (pH 5.2, aqueous with cosolvent or surfactant or cyclodextrin, Captisol 5 % w/v, pH 5.2 citric acid buffered, 20° C., read-out: Solubility of Compound I free base at pH 5.2 (citric acid buffered)): 4600 µg/mL | solubility (pH 5.2, aqueous with cosolvent or surfactant or cyclodextrin, Captisol 10 % w/v, pH 5.2 citric acid buffered, 20° C., read-out: Solubility of Compound I free base at pH 5.2 (citric acid buffered)): 7200 µg/mL | solubility (pH 5.2, aqueous with cosolvent or surfactant or cyclodextrin, Captisol 20 % w/v, pH 5.2 citric acid buffered, 20° C., read-out: Solubility of Compound I free base at pH 5.2 (citric acid buffered)): 12000 µg/mL | solubility (pH 7.2, aqueous buffer, Captisol 0 % w/v, pH 7.2 phosphate buffered, 20° C., read-out: Solubility of Compound I free base at pH 7.2 (phosphate buffered)): 2 µg/mL | solubility (pH 7.2, aqueous with cosolvent or surfactant or cyclodextrin, Captisol 2 % w/v, pH 7.2 phosphate buffered, 20° C., read-out: Solubility of Compound I free base at pH 7.2 (phosphate buffered)): 50 µg/mL | solubility (pH 7.2, aqueous with cosolvent or surfactant or cyclodextrin, Captisol 5 % w/v, pH 7.2 phosphate buffered, 20° C., read-out: Solubility of Compound I free base at pH 7.2 (phosphate buffered)): 150 µg/mL | solubility (pH 7.2, aqueous with cosolvent or surfactant or cyclodextrin, Captisol 10 % w/v, pH 7.2 phosphate buffered, 20° C., read-out: Solubility of Compound I free base at pH 7.2 (phosphate buffered)): 290 µg/mL | solubility (pH 7.2, aqueous with cosolvent or surfactant or cyclodextrin, Captisol 20 % w/v, pH 7.2 phosphate buffered, 20° C., read-out: Solubility of Compound I free base at pH 7.2 (phosphate buffered)): 610 µg/mL
Structure (SMILES): C[C@@H](OC[C@@]1(c2ccccc2)CC[C@]2(CCC(=O)N2)CN1)c1cc(C(F)(F)F)cc(C(F)(F)F)c1 [Compound I free base]
